The Emax is the maximal effect, on the per cent scale that the assay sets. For orientation: pEC50 means −log10 of the EC50, conventionally taken in molar units.

Our source for the Emax and EC50 values is patent publication US20250388584A1, “TPK AGONIST AND METHOD FOR TREATING NEURODEGENERATIVE DISEASES USING SAME” (SHANGHAI RAISING PHARMACEUTICAL CO., LTD., priority 2022, published 2025).

The target of the experiment is TPK enzyme (Homo sapiens (Human), UniProt Q9H3S4). The experiment is described as follows: TPK enzyme activity test. Format: biochemical. The following applies: for Emax: calculated with the effect of DMSO on TPK enzyme activity as 100%, read-out: Emax; for pEC50: promoting effect on TPK enzyme activity.

pEC50: −log10 of the molar value.

Sequence of TPK enzyme (Q9H3S4 whole entry): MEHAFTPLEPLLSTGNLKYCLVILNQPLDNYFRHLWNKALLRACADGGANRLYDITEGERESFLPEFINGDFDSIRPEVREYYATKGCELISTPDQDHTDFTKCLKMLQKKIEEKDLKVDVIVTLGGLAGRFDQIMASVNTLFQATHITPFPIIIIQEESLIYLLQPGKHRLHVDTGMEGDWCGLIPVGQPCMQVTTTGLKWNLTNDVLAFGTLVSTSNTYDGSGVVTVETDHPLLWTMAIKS

For `Cc1ccc2[nH]c3c(=O)n(CCC(=O)N4CCN(c5cccc(Cl)c5Cl)CC4)cnc3c2c1` [Compound 1, 3-(3-(4-(2,3-dichlorophenyl)piperazin-1-yl)-3-oxopropyl)-8-methyl-3,5-dihydro-4H-pyrimido[5,4-b]indol-4-one], the Emax is 159% and the pEC50 was 6.96.

With `Cc1ccc2[nH]c3c(=O)n(CCC(=O)N4CCN(c5cc(Cl)ccc5Cl)CC4)cnc3c2c1` [Compound 2, 3-(3-(4-(2,5-dichlorophenyl)piperazin-1-yl)-3-oxopropyl)-8-methyl-3,5-dihydro-4H-pyrimido[5,4-b]indol-4-one], the Emax was 149% and the pEC50 was 5.69.

For the molecule `Cc1ccc2c(c1)[nH]c1c(=O)n(CCC(=O)N3CCN(c4ccc(Cl)cc4Cl)CC3)cnc12` [Compound 3, 3-(3-(4-(2,4-dichlorophenyl)piperazin-1-yl)-3-oxopropyl)-7-methyl-3,5-dihydro-4H-pyrimido[5,4-b]indol-4-one], the maximal effect (Emax) was 136% and the negative logarithm of the EC50 (pEC50) was 5.75.

As to `Cc1ccc2[nH]c3c(=O)n(CCC(=O)N4CCN(c5ccccc5C(F)(F)F)CC4)cnc3c2c1` [Compound 4, 8-methyl-3-(3-oxo-3-(4-(2-(trifluoromethyl)phenyl)piperazin-1-yl)propyl)-3,5-dihydro-4H-pyrimido[5,4-b]indol-4-one], the Emax is 128%.

On to `O=C(CCn1cnc2c([nH]c3ccccc32)c1=O)N1CCN(c2cccc(C(F)(F)F)c2)CC1` [Compound 5, 3-(3-oxo-3-(4-(3-(trifluoromethyl)phenyl)piperazin-1-yl)propyl)-3,5-dihydro-4H-pyrimido[5,4-b]indol-4-one], for which the Emax was 139% and the pEC50 was 5.64.

`O=C(CCn1cnc2c([nH]c3ccc(C(F)(F)F)cc32)c1=O)N1CCN(c2cccc(C(F)(F)F)c2)CC1` [Compound 6, 3-(3-oxo-3-(4-(3-(trifluoromethyl)phenyl)piperazin-1-yl)propyl)-8-(trifluoromethyl)-3,5-dihydro-4H-pyrimido[5,4-b]indol-4-one]: the Emax was 208% and the negative logarithm of the EC50 (pEC50) was 5.99.

`Cc1ccc2[nH]c3c(=O)n(CCC(=O)N4CCN(c5ccc(Cl)cc5Cl)CC4)cnc3c2c1` [Compound 7, 3-(3-(4-(2,4-dichlorophenyl)piperazin-1-yl)-3-oxopropyl)-8-methyl-3,5-dihydro-4H-pyrimido[5,4-b]indol-4-one]: the Emax is 148% and the negative-log EC50 (pEC50) is 5.63.

For `Cc1ccc2[nH]c3c(=O)n(CCC(=O)N4CCN(c5ccc(Cl)c(Cl)c5)CC4)cnc3c2c1` [Compound 9, 3-(3-(4-(3,4-dichlorophenyl)piperazin-1-yl)-3-oxopropyl)-8-methyl-3,5-dihydro-4H-pyrimido[5,4-b]indol-4-one], the Emax is 147% and the negative logarithm of the EC50 (pEC50) is 6.11.

For the molecule `Cc1ccc2[nH]c3c(=O)n(CCC(=O)N4CCN(c5ccc(C(F)(F)F)cc5)CC4)cnc3c2c1` [Compound 10, 8-methyl-3-(3-oxo-3-(4-(4-(trifluoromethyl)phenyl)piperazin-1-yl)propyl)-3,5-dihydro-4H-pyrimido[5,4-b]indol-4-one], the Emax was 157% and the pEC50 is 5.94.

With `Cc1cccc2[nH]c3c(=O)n(CCC(=O)N4CCN(c5cccc(C(F)(F)F)c5)CC4)cnc3c12` [Compound 11, 9-methyl-3-(3-oxo-3-(4-(3-(trifluoromethyl)phenyl)piperazin-1-yl)propyl)-3,5-dihydro-4H-pyrimido[5,4-b]indol-4-one], the Emax was 180% and the pEC50 was 5.97.

With `O=C(CCn1cnc2c([nH]c3ccc(Br)cc32)c1=O)N1CCN(c2cccc(C(F)(F)F)c2)CC1` [Compound 12, 8-bromo-3-(3-oxo-3-(4-(3-(trifluoromethyl)phenyl)piperazin-1-yl)propyl)-3,5-dihydro-4H-pyrimido[5,4-b]indol-4-one], the maximal response (Emax) was 205%.

For `Cc1ccc2c(c1)[nH]c1c(=O)n(CCC(=O)N3CCN(c4cccc(Cl)c4Cl)CC3)cnc12` [Compound 13, 3-(3-(4-(2,3-dichlorophenyl)piperazin-1-yl)-3-oxopropyl)-7-methyl-3,5-dihydro-4H-pyrimido[5,4-b]indol-4-one], the Emax was 124%.

Consider `Cc1ccc2c(c1)[nH]c1c(=O)n(CCC(=O)N3CCN(c4cc(Cl)ccc4Cl)CC3)cnc12` [Compound 14, 3-(3-(4-(2,5-dichlorophenyl)piperazin-1-yl)-3-oxopropyl)-7-methyl-3,5-dihydro-4H-pyrimido[5,4-b]indol-4-one], for which the maximal effect (Emax) was 152% and the pEC50 was 5.61.

On to `Cc1ccc2[nH]c3c(=O)n(CCCC(=O)N4CCN(c5cccc(Cl)c5Cl)CC4)cnc3c2c1` [Compound 15, 3-(4-(4-(2,3-dichlorophenyl)piperazin-1-yl)-4-oxobutyl)-8-methyl-3,5-dihydro-4H-pyrimido[5,4-b]indol-4-one], for which the maximal effect (Emax) was 145% and the pEC50 was 6.33.

Turning to `Cc1ccc2[nH]c3c(=O)n(CCC(=O)N4CCN(c5cc(C(F)(F)F)cc(C(F)(F)F)c5)CC4)cnc3c2c1` [Compound 16, 3-(3-(4-(3,5-bis(trifluoromethyl)phenyl)piperazin-1-yl)-3-oxopropyl)-8-methyl-3,5-dihydro-4H-pyrimido[5,4-b]indol-4-one], the Emax is 144% and the negative-log EC50 (pEC50) is 6.44.

For `Cc1ccc2[nH]c3c(=O)n(CCC(=O)N4CCN(c5cccc(Br)c5)CC4)cnc3c2c1` [Compound 18, 3-(3-(4-(3-bromophenyl)piperazin-1-yl)-3-oxopropyl)-8-methyl-3,5-dihydro-4H-pyrimido[5,4-b]indol-4-one], the Emax was 159%.

Take `Cc1ccc2c(c1)[nH]c1c(=O)n(CCC(=O)N3CCN(c4ccc(Cl)c(Cl)c4)CC3)cnc12` [Compound 19, 3-(3-(4-(3,4-dichlorophenyl)piperazin-1-yl)-3-oxopropyl)-7-methyl-3,5-dihydro-4H-pyrimido[5,4-b]indol-4-one]: the Emax was 145% and the pEC50 was 5.70.

In the case of `Cc1ccc2c(c1)[nH]c1c(=O)n(CCC(=O)N3CCN(c4c(Cl)cccc4Cl)CC3)cnc12` [Compound 20, 3-(3-(4-(2,6-dichlorophenyl)piperazin-1-yl)-3-oxopropyl)-7-methyl-3,5-dihydro-4H-pyrimido[5,4-b]indol-4-one], the Emax is 121%.

As to `Cc1ccc2c(c1)[nH]c1c(=O)n(CCC(=O)N3CCN(c4cccc(C(F)(F)F)c4)CC3)cnc12` [Compound 22, 7-methyl-3-(3-oxo-3-(4-(3-(trifluoromethyl)phenyl)piperazin-1-yl)propyl)-3,5-dihydro-4H-pyrimido[5,4-b]indol-4-one], the Emax was 207%.

For the molecule `Cc1cccc2c1[nH]c1c(=O)n(CCC(=O)N3CCN(c4cccc(C(F)(F)F)c4)CC3)cnc12` [Compound 23, 6-methyl-3-(3-oxo-3-(4-(3-(trifluoromethyl)phenyl)piperazin-1-yl)propyl)-3,5-dihydro-4H-pyrimido[5,4-b]indol-4-one], the Emax is 121%.

Consider `Cc1ccc2[nH]c3c(=O)n(CCC(=O)N4CCN(c5cccc(N)c5)CC4)cnc3c2c1` [Compound 26, 3-(3-(4-(3-aminophenyl)piperazin-1-yl)-3-oxopropyl)-8-methyl-3,5-dihydro-4H-pyrimido[5,4-b]indol-4-one], for which the maximal effect (Emax) is 166% and the pEC50 is 5.58.
